Source: article PMC9496042 (2022)

Tests used:
[1] = system: Apt-14t (DNA, aptamer) ACGGCCAGTGGGTGGGGCGGGTGGCGGCCGGTTGTTTCTATGC; experiment: graphene oxide fluorescence recovery (FAM); details: 100 mM NaCl, 5 mM KCl, 2 mM MgCl2, 1 mM CaCl2; for binding: binding buffer pH 7.6, 100 nM aptamer, 1 µM compound
[2] = system: Apt-14t (AuNP assay) (DNA, aptamer) ACGGCCAGTGGGTGGGGCGGGTGGCGGCCGGTTGTTTCTATGC; experiment: AuNP colorimetry (A650/A520); details: 100 mM NaCl, 5 mM KCl, 2 mM MgCl2, 1 mM CaCl2; binding buffer pH 7.6, 37 °C; 200 nM aptamer; NaCl added after binding to aggregate AuNPs
[3] = system: Apt-14 (DNA, aptamer) GCTGTGTGACTCCTGCAAACGGCCAGTGGGTGGGGCGGGTGGCGGCCGGTTGTTTCTATGCGCAGCTGTATCTTGTCTCC; experiment: graphene oxide fluorescence recovery (FAM); details: 100 mM NaCl, 5 mM KCl, 2 mM MgCl2, 1 mM CaCl2; 20 mM Tris-HCl pH 7.6 (binding buffer); aptamer titrated at fixed FF (1 M [sic]); GO:ssDNA 20:1
[4] = system: Apt-1 (DNA, aptamer) GCTGTGTGACTCCTGCAAGGTCCTCGGGTGGTGGGTGGGCTCGGGTTTTTGTTCACTCTCCGCAGCTGTATCTTGTCTCC; experiment: graphene oxide fluorescence recovery (FAM); details: 100 mM NaCl, 5 mM KCl, 2 mM MgCl2, 1 mM CaCl2; 20 mM Tris-HCl pH 7.6 (binding buffer); aptamer titrated at fixed FF (1 M [sic])
[5] = system: Apt-15 (DNA, aptamer) GCTGTGTGACTCCTGCAACACGAACGTTTCCGTGGGTGGGTGGGTGGCCAAATGTCGCGTGGCAGCTGTATCTTGTCTCC; experiment: graphene oxide fluorescence recovery (FAM); details: 100 mM NaCl, 5 mM KCl, 2 mM MgCl2, 1 mM CaCl2; 20 mM Tris-HCl pH 7.6 (binding buffer); aptamer titrated at fixed FF (1 M [sic])
[6] = system: Apt-20 (DNA, aptamer) GCTGTGTGACTCCTGCAAGCGCAATGATGTGTTGTGGGTGGGCGGGTGGCTCATTGCGTGGGCAGCTGTATCTTGTCTCC; experiment: graphene oxide fluorescence recovery (FAM); details: 100 mM NaCl, 5 mM KCl, 2 mM MgCl2, 1 mM CaCl2; 20 mM Tris-HCl pH 7.6 (binding buffer); aptamer titrated at fixed FF (1 M [sic])

| binding [1] | binding [2] | Kd [3] | Kd ([1]; 20 mM Tris-HCl pH 7.6 (binding buffer), aptamer titrated 0-200 nM at fixed FF (1 M [sic])) | Kd [4] | Kd [5] | Kd [6] | Structure (SMILES) |
| --- | --- | --- | --- | --- | --- | --- | --- |
| weak |  |  |  |  |  |  | O=C(N[C@H](CO)[C@H](O)c1ccc([N+](=O)[O-])cc1)C(Cl)Cl |
| yes | yes |  |  |  |  |  | CS(=O)(=O)c1ccc([C@@H](O)[C@H](N)CF)cc1 |
|  | yes | 34.65 ± 5.7 nM | 4.66 ± 0.75 nM | 70.90 ± 22.36 nM | 57.41 ± 18.0 nM | 59.44 ± 16.9 nM | CS(=O)(=O)c1ccc([C@@H](O)[C@@H](CF)NC(=O)C(Cl)Cl)cc1 |
| weak |  |  |  |  |  |  | CS(=O)(=O)c1ccc([C@@H](O)[C@@H](CO)NC(=O)C(Cl)Cl)cc1 |
